The target in assay [1] is T1, dNS3 (Hepatitis C virus genotype 1b, UniProt P26663, A1092G/F1173S/K1113A/P1112Q/S1165A).
T1 construct: expressed in transfected cells; host or cells: HEK293FT (read in lysate)
In kind it is cell-based, hepatitis C virus (HCV). As to conditions: dNS3-NLuc and CLuc-PMED; HEK293FT lysates; drug added at time of transfection, 48 hours. The procedure: To test this, permutations of dNS3, NS3wT and each peptide variant were fused to split fragments of Renilla luciferase (FIG. 2A).
(§1) Luciferase assay. HEK293FT cells were transfected with split luciferase constructs. In the case of drug pretreatment for dose curve experiments, drug was added at the indicated concentration at the time of transfection. Two days later, the transfected cells were lysed with 1× Ex Luciferase Assay Buffer using the Nano-Glo® Dual-Luciferase® Reporter Assay System (Promega). Immediately after, the samples were treated with an additional volume of 1× Ex Luciferase Assay Buffer with the indicated concentration of drug.
(§2) The samples were then read with a plate reader once per minute measuring luminescence with 500 millisecond exposure time. […] For kinetics analysis, linear regression analysis was performed on the untreated samples and used to normalize the data for the treated samples.

The next assay deals with dNS3-Cre-PHI (Hepatitis C virus genotype 1b, UniProt P26663, A1092G/F1173S/K1113A/P1112Q/S1165A). To be noted: catalytic NS3 S139A mutation (dNS3). An excerpt: (§3) For Cre recombinase control in mammalian cells, live cells were gated in the same manner as above and gated for transfection by either a co-transfection marker of pmiRFP670-N1 or inter-plasmatic constitutive expression of iRFP670 under a separate constitutive promoter. Cells were further deemed as GFP positive if their fluorescence intensity was greater than or equal to the top 1% of non-transfected cells. Baseline activation of GFP positive cells was then subtracted using transfection marker only cells as baseline for all measurements.

Assay [2] deals with telaprevir inducible (TI) NS3 (Hepatitis C virus genotype 1b, UniProt P26663, D1194Y/F1069L/Q1106K/S1148R). It is filed as cell-based, hepatitis C virus (HCV). As to conditions: telaprevir (10 pM); flow cytometry 48 hours post-drug addition.
Text: (§4) To accomplish this, it was sought to make orthogonal inducible Cre recombinases.
as §3
(Flow cytometry measures light scatter and fluorescence of single cells or particles in a stream.)

Assay [3] addresses NS3(TI) with S139A mutation (Hepatitis C virus genotype 1b, UniProt P26663, D1194Y/F1069L/Q1106K/S1148R/S1165A). In kind it is cell-based, hepatitis C virus (HCV). To be noted: among the three drugs tested (grazoprevir, asunaprevir, telaprevir).
Text: as §4, §3

Assay [4] addresses T1, dNS3. It is filed as biochemical, hepatitis C virus (HCV). To be noted: saturating drug concentrations; 3 pM of each drug added at time of lysis. Here is the method:
as §1, §2

The next assay has as its target wild-type NS3 (Hepatitis C virus genotype 1b, UniProt P26663, A1092G/F1173S/K1113A/P1112Q). In kind it is cell-based, hepatitis C virus (HCV). To be noted: NS3WT-NLuc and CLuc-PMED; compared with dNS3. The procedure: as §1, §2

Molecules are shown by their SMILES.

T1 sequence (P26663 1027-1206 A1092G/P1112Q/K1113A/S1165A/F1173S): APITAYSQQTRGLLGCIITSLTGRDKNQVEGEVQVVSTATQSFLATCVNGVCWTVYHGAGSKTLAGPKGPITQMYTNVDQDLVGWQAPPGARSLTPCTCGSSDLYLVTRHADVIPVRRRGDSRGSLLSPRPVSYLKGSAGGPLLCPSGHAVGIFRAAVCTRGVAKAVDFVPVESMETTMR
Chain of wild-type NS3 (P26663 1027-1206 A1092G/P1112Q/K1113A/F1173S): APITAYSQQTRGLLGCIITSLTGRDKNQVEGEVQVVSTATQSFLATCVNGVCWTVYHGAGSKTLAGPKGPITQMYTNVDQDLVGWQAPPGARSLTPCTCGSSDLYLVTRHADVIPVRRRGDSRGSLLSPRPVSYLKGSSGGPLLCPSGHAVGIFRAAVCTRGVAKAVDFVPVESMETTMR
Chain of telaprevir inducible (TI) NS3 (P26663 1027-1206 F1069L/A1092G/Q1106K/P1112Q/K1113A/S1148R/F1173S/D1194Y): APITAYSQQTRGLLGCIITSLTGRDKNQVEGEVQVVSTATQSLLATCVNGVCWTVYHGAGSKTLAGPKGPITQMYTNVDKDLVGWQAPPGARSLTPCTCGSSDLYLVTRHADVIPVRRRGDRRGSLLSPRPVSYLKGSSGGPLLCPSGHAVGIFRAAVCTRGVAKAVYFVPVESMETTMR
Chain of dNS3-Cre-PHI (P26663 1027-1206 A1092G/P1112Q/K1113A/S1165A/F1173S): as the sequence (P26663 1027-1206 A1092G/P1112Q/K1113A/S1165A/F1173S) above
Chain of NS3(TI) with S139A mutation (P26663 1027-1206 F1069L/A1092G/Q1106K/P1112Q/K1113A/S1148R/S1165A/F1173S/D1194Y): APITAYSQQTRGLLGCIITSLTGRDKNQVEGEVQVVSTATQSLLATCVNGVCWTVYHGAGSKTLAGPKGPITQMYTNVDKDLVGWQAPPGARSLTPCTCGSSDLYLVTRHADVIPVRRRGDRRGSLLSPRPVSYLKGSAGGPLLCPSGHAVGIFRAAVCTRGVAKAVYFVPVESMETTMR

On to `CC(C)(C)OC(=O)N[C@H]1CCCCC/C=C\[C@@H]2C[C@@]2(C(=O)NS(=O)(=O)C2CC2)NC(=O)[C@@H]2C[C@@H](OC(=O)N3Cc4cccc(F)c4C3)CN2C1=O` [danoprevir, Danoprevir], for which the “Luciferase activity, dose response” value on dNS3 [1] is “inhibit luciferase activity in a dose dependent manner”.
In the case of `CCC[C@H](NC(=O)[C@@H]1[C@H]2CCC[C@H]2CN1C(=O)[C@@H](NC(=O)[C@@H](NC(=O)c1cnccn1)C1CCCCC1)C(C)(C)C)C(=O)C(=O)NC1CC1` [telaprevir], the “Effect of NS3 S139A mutation alone on drug induction of Cre” value on dNS3-Cre-PHI is “reduce telaprevir sensitivity”. The “Luciferase activity, dose response” value on dNS3 [1] is recorded as “significant resistance”. In addition, in assay [2], the “Induction of Cre recombination, telaprevir inducible (TI) construct” value is given as “strongly induced”. For the same molecule, in assay [3], the “Drug sensitivity of NS3(TI) Cre with NS3 S139A mutation” value is recorded as “ablates telaprevir sensitivity”. At dNS3 [4], the “Dissociation of dNS3-PMED complexes (temporal turn-off)” value was “did not dissociate dNS3-PMD complexes well”. Moreover, on wild-type NS3, the “Luciferase activity, dose response with wild-type NS3” value is on record as “effect is reverted”.
